Laboratory results from patent US4431638A, “Poly-cation salts of bis(or tris)[4-0-monohexose-thio]-arylene sulfate derivatives” (American Cyanamid Company, priority 1982, dated 1984).
Like-named read-outs stand apart in the source and are kept apart here.

What was measured:
activated human C1 = activated human C1 (Homo sapiens, UniProt P09871); assay: Test Code 026 (C1 inhibitor); assay type: biochemical; conditions: serial twofold dilution assay; higher well number indicates higher activity
Experimental: (§1) Percent inhibition is calculated by comparison with simultaneous controls.
(§2) *Tests identified by code herein. For a discussion of the tests, see
(§3) **Activity in wells, a serial dilution assay; higher well number indicate

[1] = test system: late components of human complement (C3-C9); assay: Test Code 035 (C3-C9 inhibitor), lysis of EAC 142; assay type: biochemical; conditions: serial twofold dilution assay; higher well number indicates higher activity
Experimental: as §1, §2, §3

[2] = test system: total hemolytic complement activity; conditions: both in vitro and in vivo; cited from earlier work
[3] = test system: hereditary angioneurotic edema; conditions: known complement inhibitors, literature reports; cited from earlier work
complement system = conditions: Br. J. Exp. Pathol. 33: 327 (1952); cited from earlier work
[4] = test system: complement activity of sera; assay: Guinea Pig Intraperitoneal Test (GPIP); assay type: in vivo; conditions: 200 mg/kg i.p.; for inhibition at 200 mg/kg: Cavia porcellus, ip
Experimental: as §1

With `O=S(=O)(O)OC[C@H]1O[C@@H](Sc2ccc(NS(=O)(=O)c3ccc4c(S(=O)(=O)Nc5ccc(S[C@@H]6O[C@H](COS(=O)(=O)O)[C@@H](OS(=O)(=O)O)[C@H](OS(=O)(=O)O)[C@H]6OS(=O)(=O)O)cc5)cc(S(=O)(=O)Nc5ccc(S[C@@H]6O[C@H](COS(=O)(=O)O)[C@@H](OS(=O)(=O)O)[C@H](OS(=O)(=O)O)[C@H]6OS(=O)(=O)O)cc5)cc4c3)cc2)[C@H](OS(=O)(=O)O)[C@@H](OS(=O)(=O)O)[C@@H]1OS(=O)(=O)O` [Dodecasodium N,N',N"-tris[4-[(2,3,4,6-tetra-O-sulfo-β-D-glucopyranosyl)thio]phenyl]-1,3,6-naphthylenetrisulfonamide] the “In vitro Activity C-1 026 Wells” value (activated human C1) was 5 Wells and the “In vitro Activity C-Late 035 Wells” value [1] was 1 Wells.

For pentosan-polysulfoester, the “anticomplementary activity on human serum, judged by reduction in total hemolytic complement activity” value [2] is given as “anticomplementary activity”.

In the case of `NC[C@H]1CC[C@H](C(=O)O)CC1` [tranexamic acid], the “success in the treatment of hereditary angioneurotic edema” value [3] is listed as “used with success”.

In the case of `O=C(Nc1ccc(S[C@@H]2O[C@H](COS(=O)(=O)O)[C@@H](OS(=O)(=O)O)[C@H](OS(=O)(=O)O)[C@H]2OS(=O)(=O)O)cc1)c1ccc(C(=O)Nc2ccc(S[C@@H]3O[C@H](COS(=O)(=O)O)[C@@H](OS(=O)(=O)O)[C@H](OS(=O)(=O)O)[C@H]3OS(=O)(=O)O)cc2)cc1.[Na].[Na].[Na].[Na].[Na].[Na].[Na].[Na]` [Octasodium N,N'-bis[4-[(2,3,4,6-tetra-O-sulfo-β-D-glucopyranosyl)thio]phenyl]-1,4-benzenedicarboxamide], the “In vitro Activity C-1 026 Wells” value (activated human C1) was 4 Wells and the “In vitro Activity C-Late 035 Wells” value [1] was 1 Wells.

With `O=C(Nc1ccc(S[C@@H]2O[C@H](COS(=O)(=O)O)[C@@H](OS(=O)(=O)O)[C@H](OS(=O)(=O)O)[C@H]2OS(=O)(=O)O)cc1)c1cc(C(=O)Nc2ccc(S[C@@H]3O[C@H](COS(=O)(=O)O)[C@@H](OS(=O)(=O)O)[C@H](OS(=O)(=O)O)[C@H]3OS(=O)(=O)O)cc2)cc(C(=O)Nc2ccc(S[C@@H]3O[C@H](COS(=O)(=O)O)[C@@H](OS(=O)(=O)O)[C@H](OS(=O)(=O)O)[C@H]3OS(=O)(=O)O)cc2)c1.[Na].[Na].[Na].[Na].[Na].[Na].[Na].[Na].[Na].[Na].[Na].[Na]` [Dodecasodium N,N',N"-tris[4-[(2,3,4,6-tetra-O-sulfo-β-D-glucopyranosyl)thio]phenyl]-1,3,5-benzenetricarboxamide] the “In vitro Activity C-1 026 Wells” value (activated human C1) was 4 Wells and the “In vitro Activity C-Late 035 Wells” value [1] was 1 Wells.

For `NCCCCCC(=O)O` [epsilon-aminocaproic acid], the “success in the treatment of hereditary angioneurotic edema” value [3] is given as “used with success”.

For heparin, the anticomplementary effect (complement system) is given as “anticomplementary effect”.

With `O=S(=O)(O)OC[C@H]1O[C@@H](Sc2ccc(NS(=O)(=O)c3cc(S(=O)(=O)Nc4ccc(S[C@@H]5O[C@H](COS(=O)(=O)O)[C@@H](OS(=O)(=O)O)[C@H](OS(=O)(=O)O)[C@H]5OS(=O)(=O)O)cc4)cc(S(=O)(=O)Nc4ccc(S[C@@H]5O[C@H](COS(=O)(=O)O)[C@@H](OS(=O)(=O)O)[C@H](OS(=O)(=O)O)[C@H]5OS(=O)(=O)O)cc4)c3)cc2)[C@H](OS(=O)(=O)O)[C@@H](OS(=O)(=O)O)[C@@H]1OS(=O)(=O)O.[Na].[Na].[Na].[Na].[Na].[Na].[Na].[Na].[Na].[Na].[Na].[Na]` [Dodecasodium N,N',N"-tris[4-[(2,3,4,6-tetra-O-sulfo-β-D-glucopyranosyl)thio]phenyl]-1,3,5-benzenetrisulfonamide] the “In vitro Activity C-1 026 Wells” value (activated human C1) was 10 Wells, the “In vitro Activity C-Late 035 Wells” value [1] was 2 Wells and the “In vivo Activity (Guinea Pig % Inhibition) Intraperitoneal, 2 hours” value ([4]; serum complement 2 hours after injection) was 93%. For the same compound, the “In vivo Activity (Guinea Pig % Inhibition) Intraperitoneal, 6 hours” value ([4]; serum complement 6 hours after injection) was 76%, the inhibition at 200 mg/kg ([4]; 2 h, serum complement 2 hours after injection, read-out: In vivo Activity (Guinea Pig % Inhibition) Intraperitoneal, 2 hours) was 91% and the inhibition at 200 mg/kg ([4]; 6 h, serum complement 6 hours after injection, read-out: In vivo Activity (Guinea Pig % Inhibition) Intraperitoneal, 6 hours) was 91%. It also gave an inhibition at 200 mg/kg ([4]; 24 h, serum complement 24 hours after injection, read-out: In vivo Activity (Guinea Pig % Inhibition) Intraperitoneal, 24 hours) of 87%.

For `Nc1ccc2cc(S(=O)(=O)[O-])cc(O)c2c1N=Nc1ccc(NC(=O)Nc2ccc(N=Nc3c(N)ccc4cc(S(=O)(=O)[O-])cc(O)c34)c(S(=O)(=O)[O-])c2)cc1S(=O)(=O)[O-].[Na+].[Na+].[Na+].[Na+]` [chlorazol fast pink, 3,3'-ureylenebis[6-(2-amino-8-hydroxy-6-sulfo-1-naphthylazo)benzenesulfonic acid], tetrasodium salt], the anticomplementary effect (complement system) is listed as “anticomplementary effect”.
